In ChEMBL document CHEMBL1201862, “PubChem BioAssay data set” (2004):
Calls of active or inactive are those of the source.

Key:
[1] = A cytotoxicity screen of small molecule inhibitors of the PhoP region in Salmonella typhi identified in the primary screen. [Related pubchem assays: 1850, 1864, 1985 ]; type: functional
X-box-binding protein 1 = biological target: T1, X-box-binding protein 1 (Homo sapiens, UniProt P17861); type: functional, Cricetulus griseus;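 further: confirmatory dose-response counter-screen serving a CHOP assay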
T1 sequence (P17861 whole entry): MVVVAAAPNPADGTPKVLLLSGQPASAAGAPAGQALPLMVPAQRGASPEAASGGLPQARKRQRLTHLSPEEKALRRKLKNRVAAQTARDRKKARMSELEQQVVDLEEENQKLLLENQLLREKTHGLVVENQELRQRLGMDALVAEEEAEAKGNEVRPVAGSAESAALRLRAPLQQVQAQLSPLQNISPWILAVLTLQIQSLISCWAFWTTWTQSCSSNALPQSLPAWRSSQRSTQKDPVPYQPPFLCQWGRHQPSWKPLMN

Protein skinhead-1 = biological target: T2, Protein skinhead-1 (Caenorhabditis elegans, UniProt P34707); type: functional
T2 sequence (P34707 whole entry): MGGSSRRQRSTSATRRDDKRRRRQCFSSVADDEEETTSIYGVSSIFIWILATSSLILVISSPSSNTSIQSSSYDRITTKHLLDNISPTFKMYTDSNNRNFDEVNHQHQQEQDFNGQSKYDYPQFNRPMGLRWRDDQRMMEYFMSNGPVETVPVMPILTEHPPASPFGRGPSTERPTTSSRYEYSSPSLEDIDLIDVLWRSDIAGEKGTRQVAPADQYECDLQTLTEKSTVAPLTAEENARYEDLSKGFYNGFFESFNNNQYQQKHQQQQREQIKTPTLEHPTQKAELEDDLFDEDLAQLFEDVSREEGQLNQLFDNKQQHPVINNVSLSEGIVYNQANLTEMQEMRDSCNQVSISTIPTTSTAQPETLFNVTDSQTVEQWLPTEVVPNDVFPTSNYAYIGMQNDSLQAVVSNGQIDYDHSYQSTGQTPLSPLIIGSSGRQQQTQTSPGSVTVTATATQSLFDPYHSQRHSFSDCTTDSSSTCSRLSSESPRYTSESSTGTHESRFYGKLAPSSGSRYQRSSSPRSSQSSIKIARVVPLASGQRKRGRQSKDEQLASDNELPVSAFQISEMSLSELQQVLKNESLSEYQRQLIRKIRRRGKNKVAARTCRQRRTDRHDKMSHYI

Cytochrome P450 3A4 = Cytochrome P450 3A4 (Homo sapiens, UniProt P08684);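 further: CYP3A4 tested as one member of a cytochrome P450 panel screen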
Cytochrome P450 3A4, sequence (P08684 whole entry): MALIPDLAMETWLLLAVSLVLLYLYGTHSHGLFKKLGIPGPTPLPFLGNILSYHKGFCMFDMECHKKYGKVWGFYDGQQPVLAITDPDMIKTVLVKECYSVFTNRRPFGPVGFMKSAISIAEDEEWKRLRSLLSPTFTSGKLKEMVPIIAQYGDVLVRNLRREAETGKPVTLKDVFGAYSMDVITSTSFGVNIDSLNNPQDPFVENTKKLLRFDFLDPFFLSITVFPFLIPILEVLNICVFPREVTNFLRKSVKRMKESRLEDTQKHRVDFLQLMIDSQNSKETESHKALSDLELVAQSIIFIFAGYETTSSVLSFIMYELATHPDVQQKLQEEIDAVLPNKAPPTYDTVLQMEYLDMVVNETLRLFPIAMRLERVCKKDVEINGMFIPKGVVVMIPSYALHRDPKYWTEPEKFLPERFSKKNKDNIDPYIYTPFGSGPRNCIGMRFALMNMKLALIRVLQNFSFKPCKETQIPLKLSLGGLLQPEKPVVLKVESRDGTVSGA

[2] = insulin promoter down-regulators in MIN6 cells, imaging, high-content screening, mouse beta cells (AID 1628); type: functional
[3] = inhibitors of SNCA 5'UTR-driven reporter translation, confirmation, H4 neuroglioma cells, luminescence (AID 1988); type: functional, cell-based
[4] = biological target: T3, Sphingosine 1-phosphate receptor 4 (Homo sapiens, UniProt O95977); test: Fluorescence dose response cell-based high throughput screening assay for antagonists of the Sphingosine 1-Phosphate Receptor 4 (S1P4). [Related pubchem assays: 1524 (Confirmation in triplicates.), 1510 (Primary screen.)]; type: functional
T3 sequence (O95977 whole entry): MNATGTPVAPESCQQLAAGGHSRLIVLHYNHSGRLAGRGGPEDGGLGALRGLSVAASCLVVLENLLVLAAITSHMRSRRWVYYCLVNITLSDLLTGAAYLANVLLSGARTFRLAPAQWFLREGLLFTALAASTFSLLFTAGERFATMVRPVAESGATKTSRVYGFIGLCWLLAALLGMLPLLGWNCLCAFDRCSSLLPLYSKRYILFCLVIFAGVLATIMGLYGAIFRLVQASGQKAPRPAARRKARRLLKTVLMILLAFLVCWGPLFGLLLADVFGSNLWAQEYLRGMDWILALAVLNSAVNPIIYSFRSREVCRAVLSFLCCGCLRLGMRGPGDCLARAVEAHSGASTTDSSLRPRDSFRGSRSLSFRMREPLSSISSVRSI

Nonstructural protein 1 = Nonstructural protein 1 (Influenza A virus, UniProt Q194T2); type: functional, Influenza A virus (A/California/07/2009(H1N1))
Nonstructural protein 1, sequence (Q194T2 whole entry): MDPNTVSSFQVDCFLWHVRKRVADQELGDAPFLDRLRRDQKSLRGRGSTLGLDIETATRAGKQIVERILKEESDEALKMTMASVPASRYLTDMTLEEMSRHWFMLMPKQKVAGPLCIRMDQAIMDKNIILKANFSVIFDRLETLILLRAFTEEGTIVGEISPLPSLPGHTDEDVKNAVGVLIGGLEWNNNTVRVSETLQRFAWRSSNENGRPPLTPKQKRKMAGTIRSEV

[5] = biological target: Dual specificity tyrosine-phosphorylation-regulated kinase 1A (Rattus norvegicus, UniProt Q63470); type: biochemical, Homo sapiens
[6] = biological target: T4, Sentrin-specific protease 8 (Homo sapiens, UniProt Q96LD8); type: functional;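 further: kinetic enzyme assay of SENP8 cleaving a Nedd8 protein substrate, dose-response confirmation of screening hits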
T4 sequence (Q96LD8 whole entry): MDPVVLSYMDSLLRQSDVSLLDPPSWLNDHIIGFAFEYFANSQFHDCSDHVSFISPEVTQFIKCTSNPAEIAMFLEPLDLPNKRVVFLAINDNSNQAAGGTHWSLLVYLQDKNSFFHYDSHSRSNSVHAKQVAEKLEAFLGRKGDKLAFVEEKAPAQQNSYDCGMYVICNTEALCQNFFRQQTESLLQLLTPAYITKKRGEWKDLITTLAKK

SMILES: CCc1nnc(NS(=O)(=O)c2ccc(NC(=S)NC(=O)/C=C/c3ccc(C(C)C)cc3)cc2)s1
- EC50 [1]: > 50 µM (active)
- Absolute IC50 (XBP1) (X-box-binding protein 1): 10 µM

SMILES: O=C(/C=C/c1ccco1)Nc1ccc(Oc2ccccc2)cc1
- IC50 (Protein skinhead-1): > 100 µM (inactive)
- AC50 (Cytochrome P450 3A4): 39.8 µM (inconclusive)

SMILES: O=C1C(Nc2ccc(O)cc2)=C/C(=N/S(=O)(=O)c2cccs2)c2ccccc21
- IC50 [2]: 0.975 µM (active)
- EC50 [3]: 5.59 µM (active)
- IC50 [4]: 1.65 µM (active)
- IC50 (Nonstructural protein 1): 17.9 µM (active)
- AC50 [5]: 0.883 µM (active)

SMILES: COC(=O)C(O)(c1c(C)[nH]n(-c2ccccc2)c1=O)C(F)(F)F (stereo not given)
- IC50 [6]: 1.15 µM (active)
